Measurements: patent US20110104175A1, “METHODS OF TREATMENT FOR PULMONARY FIBROSIS” (CEDARS-SINAI MEDICAL CENTER, priority 2008, published 2011)
Like-named read-outs stand apart in the source and are kept apart here. Peptide text beside a SMILES is read from it.

Tests used:
[1] = cited from earlier work
[2] = mouse; cited from earlier work
[3] = tested on: ACE N-domain and C-terminal domain; details: N-domain versus C-terminal domain; cited from earlier work
wild-type and N-KO mice [4] = assay: Survival analysis after intratracheal bleomycin
From the text: (§1) Preparation of Mice. We generated mice expressing site-inactivated ACE by homologous recombination. N-KO mice express a full length ACE protein where the N-terminal catalytic site was inactivated by mutating two zinc-binding histidines (^395H and ^399H) to lysines. In the C-KO strain, ^993H and ^997H, which are responsible for the zinc binding and catalytic activity of the C-terminal enzymatic site, were mutated to lysine. The generation of these two strains of mice has been described in detail prior. Both N-KO and C-KO mice are a genetic mix of strains 129 and C57BL/6. Age and gender-matched littermate controls were used in all studies. All mice used in this study have only one functional renin gene. Drug Administration. The administration of bleomycin was performed under anesthesia by intratracheal instillation as previously described. A small skin incision was made to expose the trachea. A 25-gauge needle was inserted directly into the trachea without reaching the bifurcation and the animals were maintained on the surgical board with a 30 degree angle to ensure a correct diffusion of the drug or saline to both lungs. Bleomycin was solubilized in water, aliquoted, lyophilized and kept at −20 C. For each experiment a fresh aliquot was dissolved in saline and, unless otherwise indicated, administered in a dose of 1 mg/kg. The concentration of the solution was adapted to inject 2 μl/g, The skin was then sutured and the animal monitored until complete recovery.
(§2) Absorbance was measured at 550 nm.

wild-type and N-KO mice [5] = details: for cell content of the bronchoalveolar lavage: intratracheal bleomycin without S17092, two weeks
From the text: as §1, §2

[6] = tested on: wild-type, N-KO and C-KO mice
From the text: as §1, §2

wild-type and N-KO mice [7] = assay: Lung histology 14 days after bleomycin; format: in vivo, mouse; details: bleomycin 0.5 mg/kg
Procedure: A group of 8 N-KO and 8 wild-type control mice received 0.5 mg/kg body weight of bleomycin. These animals were sacrificed 14 days later. Under deep anesthesia, the thoracic cage was opened to expose the lung. A 25 G needle was secured in the trachea and 0.8 to 1 ml of 10% buffered formalin was injected until the lungs were inflated. The trachea was then ligatured. The whole lung was carefully collected in one block with the heart and immersed in formalin overnight. The tissue was then dehydrated and paraffin embedded using standard techniques. Five micron coronal sections were obtained from the central part of the lung and were stained with either Masson's trichrome or with hematoxylin and eosin. For each animal, both right and left lobes of the lung were examined by a pathologist blinded to the genotype of the mice.

patients = details: cited from earlier work
[8] = tested on: wild-type, N-KO and C-KO mice; assay: Weight loss after intratracheal instillation of bleomycin
From the text: as §1
Weight loss is a typical feature secondary to bleomycin administration and is associated with the severity of the pulmonary lesions.

rats = details: model of heart infarction; cited from earlier work

Molecule: Ac-Asp-(L)Pheψ(PO2—CH2)(L)Ala-Ala-NH2 (Ac-DFAA-NH2; also: Phe2-Ala3 peptide bond replaced by phosphinic ψ(PO2-CH2) bond) [RXP 407]
- elevation of plasma Ac-SDKP ([1]; RXP 407 combined with Ac-SDKP infusion): 16 fold
- increase of plasma level of Ac-SDKP ([1]; mouse, RXP 407 alone): ≤ 6 fold
- stability in vivo [2]: stable in vivo
- dissociation constant for the ACE N-domain relative to the C-terminal domain [3]: three orders of magnitude lower

Molecule: bleomycin
- long-term survival (wild-type and N-KO mice [4]; N-KO mice, bleomycin 5 mg/kg body weight intratracheal): 4 of 15
- mice surviving 12 days after drug administration (wild-type and N-KO mice [4]; wild-type mice, bleomycin 5 mg/kg body weight intratracheal): 1 of 15
- deaths (wild-type and N-KO mice [4]; wild-type or N-KO mice, bleomycin 1 mg/kg body weight intratracheal): virtually no deaths
- cell content of the bronchoalveolar lavage (wild-type and N-KO mice [5]; N-KO mice): 12.73±1.58 10^5 cells per lung
- cell content of the bronchoalveolar lavage (wild-type and N-KO mice [5]; wild-type mice): 24.21±3.10 10^5 cells per lung
- pulmonary collagen levels (hydroxyproline) ([6]; N-KO mice, two weeks after intratracheal bleomycin): did not increase pulmonary collagen levels
- hydroxyproline content of lungs ([6]; wild-type and C-KO mice, two weeks after intratracheal bleomycin): significantly increased the hydroxyproline content
- lung histology (inflammation, collagen stripes) versus wild-type (wild-type and N-KO mice [7]; N-KO mice): much reduced
- lung histology (wild-type and N-KO mice [7]; wild-type mice): extensive lung injury
- patients with lung injury who die of lung injury (patients; of the patients who develop lung injury): 1-3%
- patients developing sufficient lung injury to necessitate cessation of treatment (patients; patients treated with bleomycin, meta-analysis): 10 to 50%
- weight loss, C-KO mice versus wild-type controls ([8]; C-KO mice): no significant difference in weight loss
- weight loss ([8]; N-KO mice): 1.60±1.23%
- weight loss ([8]; wild-type animals): 9.26±2.52%

Molecule: CC(=O)N[C@@H](CO)C(=O)N[C@@H](CC(=O)O)C(=O)N[C@@H](CCCCN)C(=O)N1CCC[C@H]1C(=O)O [AcSDKP, N-acetyl-seryl-aspartyl-lysyl-proline] (Ac-SDKP-OH)
- lavage cellularity (wild-type and N-KO mice [5]; wild-type mice, AcSDKP 1 mg/kg/day by osmotic minipump, bleomycin on day 2, two weeks later, versus saline-filled minipump): substantially reduced lavage cellularity
- collagen deposition, as assessed by hydroxyproline ([6]; wild-type mice, AcSDKP 1 mg/kg/day by osmotic minipump, bleomycin): did not significantly reduce the collagen deposition
- collagen deposition (rats): prevented and even reversed collagen deposition
